Data: US11787783B2, “Heparanase inhibitors and use thereof” (Beta Therapeutics Pty Ltd, priority 2016, dated 2023)

Each compound was assayed against T1, heparanase (Homo sapiens, UniProt Q9Y251) (assay: Heparanase inhibition (IC50)). Settings: Heparanase inhibition IC50.
T1 sequence (Q9Y251 158-543 limits assumed): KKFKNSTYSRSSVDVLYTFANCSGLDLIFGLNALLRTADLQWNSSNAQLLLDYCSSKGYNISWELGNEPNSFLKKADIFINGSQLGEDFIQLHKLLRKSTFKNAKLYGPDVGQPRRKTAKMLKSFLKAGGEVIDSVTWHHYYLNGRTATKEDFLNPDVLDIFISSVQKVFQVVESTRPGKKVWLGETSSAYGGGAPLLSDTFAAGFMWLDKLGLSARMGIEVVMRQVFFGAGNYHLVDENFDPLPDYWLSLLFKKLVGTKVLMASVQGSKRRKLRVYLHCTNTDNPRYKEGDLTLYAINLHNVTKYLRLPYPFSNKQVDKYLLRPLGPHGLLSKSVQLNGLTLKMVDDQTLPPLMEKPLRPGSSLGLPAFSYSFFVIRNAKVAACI
T1 sequence (Q9Y251 36-109 limits assumed): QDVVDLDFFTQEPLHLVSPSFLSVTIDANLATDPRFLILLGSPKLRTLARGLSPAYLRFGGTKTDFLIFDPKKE
Type: biochemical
Method: Heparanase inhibition was determined using standard methods and the results expressed as the half maximal inhibitory concentration (IC50) being the concentration of the compound of the invention required to achieve 50% inhibition of heparanase.
`COc1cc2[nH]c(=S)n(CCn3cc(C(=O)NCCN4CCOCC4)c4ccccc43)c(=N)c2cc1OC` [BT2104] was tested, and the IC50 was 44.8 µM.

Same assay, conditions: read-out: Heparanase inhibition IC50
`COc1cc2[nH]c(=S)n(CCc3c[nH]c4ccccc34)c(=N)c2cc1OC` [BT2012] gave an IC50 of 14.8 µM.
With `COc1ccc2[nH]c(=S)n(CCc3c[nH]c4ccccc34)c(=N)c2c1` [BT2014] the IC50 was 49.3 µM.
`COc1ccc(OC)c(Cn2c(=S)[nH]c3cc(OC)c(OC)cc3c2=N)c1` [BT2022] was tested, and the IC50 was 37.2 µM.
With `COc1cc2[nH]c(=S)n(CCc3cn(C)c4ccccc34)c(=N)c2cc1OC` [BT2024] the IC50 was 27.4 µM.
`COc1ccc(Cn2c(=S)[nH]c3cc(OC)c(OC)cc3c2=N)c(OC)c1` [BT2027] showed an IC50 of 40.1 µM.
Compound `COc1cc2[nH]c(=S)n(CCc3c[nH]c4ccccc34)c(=N)c2cc1OC` [BT2044] has an IC50 of 30 µM.
Work on `COc1ccc2[nH]cc(CCn3c(=S)[nH]c4cc(OC)c(OC)cc4c3=N)c2c1` [BT2046] yielded an IC50 of 9.4 µM.
`COc1cc2[nH]c(=S)n(CCc3c[nH]c4ccc(-c5cccnc5)cc34)c(=N)c2cc1OC` [BT2055] gave an IC50 of 19.1 µM.
`COc1cc2[nH]c(=S)n(CCNC(=O)c3cc4ccc(-c5ccc(C(=O)N6CCN(C)CC6)cc5)cc4[nH]3)c(=N)c2cc1OC` [BT2073] gave an IC50 of 51 µM.
`COc1cc2[nH]c(=S)n(CCNC(=O)c3cc4cc(-c5ccc(N6CCN(C)CC6)nc5)ccc4[nH]3)c(=N)c2cc1OC` [BT2075] showed an IC50 of 20.6 µM.
With `COc1cc2[nH]c(=S)n(CCNC(=O)c3cc4ccc(-c5ccc(N6CCN(C)CC6)nc5)cc4[nH]3)c(=N)c2cc1OC` [BT2076] the IC50 was 12.4 µM.
Work on `COc1cc2[nH]c(=S)n(CCNC(=O)c3cc4cc(-c5cnn(C)c5)ccc4[nH]3)c(=N)c2cc1OC` [BT2078] yielded an IC50 of 34.8 µM.
Work on `COc1cc2[nH]c(=O)n(CCNC(=O)c3cc4cc(C(=O)N5CCC5)ccc4[nH]3)c(=N)c2cc1OC` [BT2080] yielded an IC50 of 90.4 µM.
`COc1cc2[nH]c(=O)n(CCNC(=O)c3cc4cc(C(=O)N5CCOCC5)ccc4[nH]3)c(=N)c2cc1OC` [BT2081] showed an IC50 of 90.4 µM.
In the case of `COc1cc2[nH]c(=S)n(CCNC(=O)c3cc4cc(C(=O)N5CCOCC5)ccc4[nH]3)c(=N)c2cc1OC` [BT2082], the IC50 is reported as 35 µM.
Work on `COc1cc2[nH]c(=S)n(C3CN(C(=O)c4cc5cc(-c6cccnc6)ccc5[nH]4)C3)c(=N)c2cc1OC` [BT2085] yielded an IC50 of 1.3 µM.
Compound `COc1cc2[nH]c(=S)n(CCNC(=O)c3cccc(-c4ccccc4)n3)c(=N)c2cc1OC` [BT2115] has an IC50 of 19.7 µM.
`COc1cc2[nH]c(=S)n(CCNC(=O)c3cccc(-c4ccc(C(=O)N5CCN(C)CC5)cc4)n3)c(=N)c2cc1OC` [BT2116] showed an IC50 of 12.8 µM.
`COc1cc2[nH]c(=S)n(CCNC(=O)c3cccc(-c4ccc5nonc5c4)n3)c(=N)c2cc1OC` [BT2117] showed an IC50 of 12.5 µM.
Compound `COc1cc2[nH]c(=S)n(CCNC(=O)c3ccc(-c4ccccc4)nc3)c(=N)c2cc1OC` [BT2125] has an IC50 of 15.6 µM.
With `COc1cc2[nH]c(=S)n(CCNC(=O)c3nnc(-c4ccccc4)o3)c(=N)c2cc1OC` [BT2132] the IC50 was 58.6 µM.
`COc1cc2nc(SCc3ccccc3)n(CCNC(=O)c3cc4ccccc4[nH]3)c(=N)c2cc1OC` [BT2135] gave an IC50 of 64 µM.
With `COc1cc2nc(SCc3ccc(C(F)(F)F)cc3)n(C3CN(C(=O)c4cc5ccc(-c6cccnc6)cc5[nH]4)C3)c(=N)c2cc1OC` [BT2139] the IC50 was 13 µM.
In the case of `COc1cc2nc(SCc3ccc(C(F)(F)F)cc3)n(C3CN(C(=O)c4cc5ccc(-c6cccnc6)cc5[nH]4)C3)c(=N)c2cc1OC` [BT2140], the IC50 is reported as 37.5 µM.
Work on `COc1cc2nc(SC)n(C3CN(C(=O)c4cc5ccc(-c6cccnc6)cc5[nH]4)C3)c(=N)c2cc1OC` [BT2141] yielded an IC50 of 23.6 µM.
With `COc1cc2nc(SCc3ccc(OC(F)(F)F)cc3)n(C3CN(C(=O)c4cc5ccc(-c6cccnc6)cc5[nH]4)C3)c(=N)c2cc1OC` [BT2142] the IC50 was 7 µM.
`COc1cc2nc(SC)n(C3CN(C(=O)c4cc5ccc(-c6cccnc6)cc5[nH]4)C3)c(=N)c2cc1OC` [BT2143] showed an IC50 of 33 µM.
`COc1cc2[nH]c(=S)n(CCNC(=O)c3nnc(-c4ccccc4)o3)c(=N)c2cc1OC` [BT2144] was tested, and the IC50 was 59.9 µM.
For `COc1cc2nc(SCc3ccc(OC(F)(F)F)cc3)n(C3CN(C(=O)c4cc5ccc(-c6cccnc6)cc5[nH]4)C3)c(=N)c2cc1OC` [BT2145], the IC50 was 22 µM.

The compounds below were run on RIP-OVAhi mice (assay: Adoptive transfer of Type 1 diabetes in transgenic RIP-OVAhi mice (acute Type 1 diabetes model)). Settings: 10 mg/kg QD, IP, 14 day assay period.
Type: in vivo, mouse
Method: FIG. 2. Treatment of RIP-OVA^hi mice from the time of adoptive transfer of OVA-specific OT-1 and activated […] tg T cells with the small molecule heparanase inhibitor BT-2012 (10 mg/kg QD, IP in saline/50% DMSO).
FIG. 3. Treatment of RIP-OVA^hi mice from the time of adoptive transfer of OVA-specific OT-1 and activated OT-II tg T cells with a control heparanase inhibitor, (denoted “BT-1055”) (10 mg/kg QD, IP in saline/20% DMSO).
In NOD mice, the autoimmune disease process develops slowly because of the asynchronous destruction of the beta cells in different islets. Indeed Type 1 diabetes develops only after >90% of the total islet beta cell mass has been destroyed. The slow course of the disease in NOD mice offers realistic potential for immune intervention but, unfortunately, high throughput screening of test drugs is not feasible. A more acute model of diabetes can be induced experimentally using RIP-OVAhi transgenic mice which express a foreign ovalbumin (OVA) peptide, under the control of the rat insulin promoter (RIP), only in islet beta cells. Following adoptive transfer of naïve OVA specific CD8+ (OT-I) and activated OVA-specific CD4+ (OT-II) transgenic T cells, the transgenic T cells traffic to the host lymph nodes where the OT-I T cells become activated and then to the OVA-expressing pancreatic islets where they rapidly induce islet beta cell destruction and diabetes, all mice succumbing to rapid onset of high blood glucose levels (hyperglycaemia) in the second week after cell transfer. […]
Using the RIP-OVAhi transgenic mice the effect of a heparanase inhibitor compound (denoted “BT-1055”) was tested for its effect on blood glucose levels. Following adoptive transfer of naïve OVA specific CD8+ (OT-I) and activated OVA-specific CD4+ (OT-II) transgenic T cells into a number of RIP-OVAhi mice blood glucose was monitored regularly over two weeks in populations of mice treated with BT-1055 and a control group administered saline (FIG. 3).
In the case of `COc1cc2[nH]c(=S)n(CCc3c[nH]c4ccccc34)c(=N)c2cc1OC` [BT2012], the “Individual treated mice in which blood glucose remained normal” value is reported as 50%.

Same assay, conditions: 10 mg/kg QD, IP, from the time of adoptive transfer of OT-I and activated OT-II tg T cells
`COc1cc2[nH]c(=S)n(CCc3c[nH]c4ccccc34)c(=N)c2cc1OC` [BT2012] was tested, and the “Incidence of diabetes (blood glucose >12 mmol) reduced” value was 50%.

Same assay, conditions: 10 mg/kg, by 14 days after transfer
In the case of `COc1cc2[nH]c(=S)n(CCc3c[nH]c4ccccc34)c(=N)c2cc1OC` [BT2012], the “Protection from Type 1 diabetes induction following adoptive transfer of diabetogenic tg T cells” value is reported as “protected RIPOVAhi mice from Type 1 diabetes induction”.

The compounds below were run on db/db mice (assay: Intra-islet heparan sulfate content in db/db mice, Alcian blue staining). Settings: 50 mg/kg daily intraperitoneal injection, versus saline treated db/db and wild-type mice.
Type: in vivo, mouse
Method: (§1) FIG. 6. Intra-islet HS content in pancreas sections in treated db/db mice. Mice were treated daily with 50 mg/kg PI-88 IP from 4 weeks of age. Onset of clinical diabetes was determined by measuring urine glucose twice weekly with Multistix reagent strips and confirmed by measuring non-fasting blood glucose levels in tail vein blood using a MediSense glucometer with hyperglycemia defined as 2 consecutive blood glucose readings of 16 mmol/I or greater. Islet HS was detected by Alcian blue staining.
db/db mice were treated with saline or 50 mg/kg of PI-88 daily by intraperitoneal injection. At the cessation of treatment pancreatic islets were isolated and stained with alcian blue to visualise heparan sulfate and the heparan sulfate content of the islets was assessed by quantitative morphometric analyses.
For PI-88, the “Islet heparan sulfate levels (quantitative morphometric analyses)” value was “increased compared to the saline treated db/db mice and are near to the levels of heparan sulfate in the islets of wild-type mice”.

These compounds were tested on db/db mice (assay: Insulin content in pancreas sections/islets of db/db mice (Type 2 diabetes model), anti-insulin antibody staining). Settings: 50 mg/kg daily intraperitoneal injection, versus saline treated db/db and wild-type mice.
Type: in vivo, mouse
Method: as §1, with “5. Insulin” for “6. Intra-islet HS”, “in” for “in treated”, “mice a model of Type 2 diabetes.” for “mice.”, “Insulin” for “Islet HS”, “anti-insulin antibody” for “Alcian blue”
The db/db mouse has defective leptin signalling resulting from a point mutation in the leptin receptor gene. Plasma insulin levels become elevated very early in life (10-14 days of age), and the affected animals are obese by the time they are 3-4 weeks old. The animals are insulin resistant, hypertriglyceridemic, and have impaired glucose tolerance.
db/db mice were treated with saline or 50 mg/kg of PI-88 by daily intraperitoneal injection. At the cessation of treatment pancreatic islets were isolated and stained for insulin and the level of insulin expression assessed by quantitative morphometric analyses.
In the case of PI-88, the “Expression of insulin in islets (quantitative morphometric analyses)” value is reported as “increased compared to the saline treated db/db mice and is near to the level of insulin expression in the wild-type mice”.
